Measured values published in ChEMBL document CHEMBL1147815, “Stilbene-based anticancer agents: resveratrol analogues active toward HL60 leukemic cells with a non-specific phase mechanism” (Bioorg Med Chem Lett, 2006).
Activity calls are given as the source filed them. The rule behind the calls is not given here.

What was measured:
Assay type in all cases: functional, cell-based
HL-60 [1] = test: Antiproliferative activity against human HL60 cells
HL-60 [2] = test: Apoptosis inducing activity in human HL60 cells
HL-60 [3] = test: Induction of apoptotic sub-G0/G1 phase in HL60 cells; settings: Homo sapiens
HL-60 [4] = test: Induction of partial block of S phase in HL60 cells; settings: Homo sapiens
HL-60 [5] = test: Decrease of HL60 cells at G2/M phase; settings: Homo sapiens
HL-60 [6] = test: Decrease of HL60 cells at G0/G1 phase; settings: Homo sapiens
HL-60 [7] = test: Decrease of HL60 cells at S phase; settings: Homo sapiens

Row | SMILES | IC50 (HL-60 [1]) [µM] | AC50 (HL-60 [2]) [µM] | Activity (HL-60 [3]) | Activity (HL-60 [4]) | Activity (HL-60 [5]) | Activity (HL-60 [6]) | Activity (HL-60 [7])
1 | COc1cc(/C=C/c2cc(OC)c(OC)c(OC)c2)cc(OC)c1 | 22 | 42 | – | – | – | – | –
2 | COc1ccc(/C=C/c2cc(OC)cc(OC)c2)cc1 | – | – | Active | Active | – | – | –
3 | COc1ccc(/C=C\c2cc(OC)cc(OC)c2)cc1 [8Z-3,4',5-TRIMETHOXYSTILBENE] | 0.15 | 0.24 | Active | – | Active | Active | Active
4 | COc1cccc(/C=C/c2cc(OC)cc(OC)c2)c1 | 37 | 70 | – | – | – | – | –
5 | Cc1ccc(/C=C/c2ccc(O)cc2)cc1C | 3.5 | 6 | – | – | – | – | –
6 | COc1cccc(/C=C\c2cc(OC)cc(OC)c2)c1 | 2.8 | 5.4 | – | – | – | – | –
7 | O=[N+]([O-])c1ccc(/C=C/c2ccc(O)cc2)cc1 | 2.5 | 4.8 | Active | Active | – | – | –
8 | COc1cc(/C=C\c2cc(OC)c(OC)c(OC)c2)cc(OC)c1 | 1.8 | 2.6 | Active | Active | – | – | –
